Data from patent US6623933B1 (priority 1999, dated 2003).
Entries after “also recorded” stand apart in the source; their conditions may differ. Where a name gives a salt, the structure may show the parent alone. Read-outs that look alike come from different tables or passages of the source.

Key:
[1] = tested on: NMDA receptor (chick spinal cord neurons); conditions: Park-Chung et al. 1997, cited from earlier work
[2] = tested on: primary cultures of rat hippocampal neurons; experiment: NMDA-induced neuronal death, trypan blue exclusion; type: cell-based; conditions: for inhibition of NMDA-induced neuronal death: acute 30 μM NMDA, steroid 100 μM (3α5β 50 μM); for exacerbation of NMDA-induced neuronal death: acute NMDA, steroid 100 μM (pregnenolone 20 μM)
Description: (§1) Principally neuronal cultures were prepared from hippocampal tissue of fetal Sprague-Dawley rats on day 18 of embryonic development, as previously described (Brewer et al., Brain Research 494: 65-74 (1989)). Briefly, hippocampal cells were dissociated by trituration in Ca^2+/Mg^2+-free Hank's basic salt solution (Gibco) supplemented with 4.2 mM bicarbonate, 1 mM sodium pyruvate, 20 mM HEPES, 3 mg/ml bovine serum albumin (BSA). Dissociated cells were then pelleted by centrifugation (500×g, 4 min). […] Cells were then plated onto poly-L-lysine-coated 24-well culture dishes (Nunclon) at a density of 15,000 cell/cm^2 and maintained in a humidified atmosphere containing 5% CO2/95% air at 37° C. After 48 h, nonneuronal cell division was inhibited by a 48 h exposure to 1 μM cytosine arabinoside. Cultures were subsequently maintained in serum-free DMEM plus defined components and were used for experiments 16 to 24 days after plating.
(§2) Steroids were dissolved in DMSO (0.5% final concentration), and all treatment media contained 0.5% DMSO. […] Following exposure, cultures were washed 3 times with medium from sister cultures (conditioned medium). After the final wash, steroid or vehicle was reintroduced. Drugs were added to cultures in 25 μl of conditioned medium to yield a final volume of 0.25 ml per well. Except where otherwise noted, final steroid concentration was 100 μM.
The ability of neurons to exclude trypan blue was used to quantitate cell viability (Dawson et al., Proc Natl Acad Sci USA 88: 6368-6371 (1991)). […] Cultures were then fixed with 4% paraformaldehyde in PBS for 30 min, at whichtime the fixative was replaced with PBS. The number of stained and unstained neurons were counted in 4 high-power fields per culture well, using an inverted phase contrast microscope under both bright field and phase contrast settings. Experiments were performed in triplicate, and all assessments were made with the experimenter blind to the treatment of each culture well. Percent cell death is expressed as follows: (number of trypan blue stained neurons)/(total number of neurons)×100%.
(§3) All data are expressed as mean±standard error of the mean. Statistical significance was evaluated using 95% confidence limits unless otherwise noted.

[3] = molecular target: T1, NR1100+NR2A NMDA receptor (Rattus norvegicus, UniProt P35439+Q00959); experiment: NMDA-induced currents, Xenopus oocytes, Example 1; type: cell-based; conditions: for effect on NMDA induced current: NR1100+NR2A, sulfate
T1 construct: expressed in transfected cells; host or cells: Xenopus oocytes co-injected with NR1100 and NR2A cRNA
Text: (§4) Plasmids were obtained from the following individuals: Dr. Suzanne Zukin (Albert Einstein College of Medicine, Bronx, N.Y.), NR1100; Dr. Shigetada Nakanishi (Kyoto University Faculty of Medicine, Kyoto, Japan), NR2A; Dr. Stephen Heinemann (Salk Institute, San Diego, Calif.), GluR1 (flop), GluR3 (flop), and GluR6. Plasmids were linearized with BamH1 (NR1100), XhoI (NR2A, GluR1, GluR3) or XbaI (GluR6) prior to in vitro transcription with T3 (GluR1, GluR3, GluR6) or T7 (NR1100, NR2A) RNA polymerase using the Message Machine kit (Ambion, Austin, Tex.). […] RNA solutions (50-70 nl) were injected into oocytes for delivery of NR1100 (5 ng), NR1100:NR2A (1:10 ng), GluR1 (5 ng). GluR3 (5 ng), or GluR6 (20 ng). Oocytes were incubated in ND96 at 18-20° C. for 3-7 days prior to electrophysiological recording.
(§5) Steroid solutions were prepared as 70-100 mM frozen stocks in dimethyl sulfoxide (DMSO). The final DMSO concentration of all recording solutions was between 0.1% to 0.5% and was constant within an experiment.
(§6) Perfusion control and data acquisition were carried out using an automated oocyte electrophysiology workstation that was developed for the rapid collection of concentration-response data and real-time waveform analysis (Yaghoubi et al., Soc. Neurosci. Abstr. 20: 1109 (1995)). This system is implemented on a Macintosh IIci computer (Apple Computer, Cupertino, Calif.) equipped with MacA-DIOS II data acquisition and control hardware (GW Instruments, Somerville, Mass.). Drug application is controlled by the computer through a series of valves, using custom-written software based on the SuperScope II development environment, improving the efficiency and reproducibility of data collection. Experiments were carried out using an Axoclamp-2A voltage clamp amplifier (Axon Instruments, Foster City, Calif.) in two-electrode voltage clamp mode. Intracellular microelectrodes (1-3 MΩ) were filled with 3 M KCl. […] Membrane potential was clamped at −60 to −70 mV and stepped to −100 mV at the start of data acquisition unless otherwise stated. […] Current and voltage recordings were digitized at 100 Hz for analysis. GluR6 injected oocytes were treated for 10 min with 10 μg/ml concanavalin A to prevent fast desensitization.
(§7) Results are expressed as mean±S.E.M. Statistical comparisons were made using Student's t-test.

[4] = molecular target: T1, NR1100+NR2A NMDA receptor; experiment: NMDA-induced current (INMDA), Xenopus oocytes, Example 2; type: cell-based; conditions: 100 μM NMDA, 100 μM steroid
Description: NR1100 (NR1G) and NR2A clones were kindly provided by Dr. R. S. Zukin (Albert Einstein College of Medicine, New York, N.Y.) and Dr. S. Nakanishi (Faculty of Medicine, Kyoto University, Kyoto, Japan), respectively. mRNA was prepared through in vitro transcription of NR1100 and NR2A cDNAs using the mMessage mMachine kit (Ambion, Tex.). On the day following isolation, batches of 20-40 selected Xenopus oocytes were injected with 50 nl of prepared RNA solution (0.5 ng NR1100 and 5 ng of NR2A mRNA/oocyte). Oocytes were maintained in glass petri dishes containing Barth's solution (84 mM NaCl, 1 mM KCl, 2.4 mM NaHCO3, 0.82 mM MgSO4, 0.41 mM CaCl2, 0.33 mM Ca(NO3)2, 2.5 mM pyruvate, 0.1 mg/ml gentamycin, 7.5 mM Tris/HCl, pH 7.4) in an incubator at 18° C. Oocytes were used for electrophysiological experiments 4-10 days after injection.
Recordings from oocytes were obtained using the two electrode voltage-clamp mode with an Axoclamp-2A amplifier (Axon Instruments). The resistance of microelectrodes, pulled from glass capillaries and filled with 3 M KCl solution, was 2.5-3.5 M. Membrane potential was clamped at −70 mV. Drugs were applied by a gravity-driven external perfusion system. Drug application and data acquisition were carried out with custom-written software implemented in the SuperScopeII programming language (GW Instruments, Somerville, Mass.).
The degree of modulation of NMDA-induced Ca^2+ influx, cell death, and currents is expressed as the percent change, defined as (I′/I−1)×100%, where I and I′ are the NMDA-induced responses in the absence and presence of modulator, respectively. All data are expressed as mean±standard error of the mean. Statistical significance was evaluated using 95% confidence limits unless otherwise noted.

[5] = Precipitation in assay buffer / culture medium; type: physicochemical; conditions: 0.5% DMSO, above 50 μM (3α5β) and 20 μM (pregnenolone)
Description: Steroids were initially dissolved in 100% DMSO, then diluted into assay buffer at a final DMSO concentration of 0.5% and sonicated for 20 min. All other solutions also contained 0.5% DMSO. Except where otherwise noted, the final steroid concentration was 100 μM.
as §2

[6] = tested on: primary cultures of rat hippocampal neurons; experiment: NMDA-induced increase in [Ca2+]i, Fluo-3 AM; type: cell-based; conditions: for reduction of NMDA-induced rise in [Ca2+]i: steroid 100 μM (3α5β 50 μM)
Description: as §1
DMSO was also added to controls to maintain a constant final DMSO concentration of […].
as §3

NR1100 NMDA receptor = molecular target: T2, NR1100 NMDA receptor (Rattus norvegicus, UniProt P35439); experiment: NMDA-induced currents, Xenopus oocytes injected with NR1100 cRNA only, Example 1; type: cell-based
T2 construct: expressed in transfected cells; host or cells: Xenopus oocytes injected with NR1100 cRNA only
Text: as §4, §5, §6, §7

GluR3 AMPA receptor = molecular target: T3, GluR3 AMPA receptor (Rattus norvegicus, UniProt P19492); experiment: Kainate-induced currents, Xenopus oocytes injected with GluR3 cRNA; type: cell-based
T3 construct: expressed in transfected cells; host or cells: Xenopus oocytes injected with GluR3 cRNA
Text: as §4, §5, §6, §7

GluR1 AMPA receptor = molecular target: T4, GluR1 AMPA receptor (Rattus norvegicus, UniProt P19490); experiment: Kainate-induced currents, Xenopus oocytes injected with GluR1 cRNA; type: cell-based
T4 construct: expressed in transfected cells; host or cells: Xenopus oocytes injected with GluR1 cRNA
Text: as §4, §5, §6, §7

GluR6 kainate receptor = molecular target: T5, GluR6 kainate receptor (Rattus norvegicus, UniProt P42260); experiment: Kainate-induced currents, Xenopus oocytes injected with GluR6 cRNA; type: cell-based
T5 construct: expressed in transfected cells; host or cells: Xenopus oocytes injected with GluR6 cRNA (concanavalin A treated)
Text: as §4, §5, §6, §7

T1 sequence (Q00959 23-1464, other chains not shown): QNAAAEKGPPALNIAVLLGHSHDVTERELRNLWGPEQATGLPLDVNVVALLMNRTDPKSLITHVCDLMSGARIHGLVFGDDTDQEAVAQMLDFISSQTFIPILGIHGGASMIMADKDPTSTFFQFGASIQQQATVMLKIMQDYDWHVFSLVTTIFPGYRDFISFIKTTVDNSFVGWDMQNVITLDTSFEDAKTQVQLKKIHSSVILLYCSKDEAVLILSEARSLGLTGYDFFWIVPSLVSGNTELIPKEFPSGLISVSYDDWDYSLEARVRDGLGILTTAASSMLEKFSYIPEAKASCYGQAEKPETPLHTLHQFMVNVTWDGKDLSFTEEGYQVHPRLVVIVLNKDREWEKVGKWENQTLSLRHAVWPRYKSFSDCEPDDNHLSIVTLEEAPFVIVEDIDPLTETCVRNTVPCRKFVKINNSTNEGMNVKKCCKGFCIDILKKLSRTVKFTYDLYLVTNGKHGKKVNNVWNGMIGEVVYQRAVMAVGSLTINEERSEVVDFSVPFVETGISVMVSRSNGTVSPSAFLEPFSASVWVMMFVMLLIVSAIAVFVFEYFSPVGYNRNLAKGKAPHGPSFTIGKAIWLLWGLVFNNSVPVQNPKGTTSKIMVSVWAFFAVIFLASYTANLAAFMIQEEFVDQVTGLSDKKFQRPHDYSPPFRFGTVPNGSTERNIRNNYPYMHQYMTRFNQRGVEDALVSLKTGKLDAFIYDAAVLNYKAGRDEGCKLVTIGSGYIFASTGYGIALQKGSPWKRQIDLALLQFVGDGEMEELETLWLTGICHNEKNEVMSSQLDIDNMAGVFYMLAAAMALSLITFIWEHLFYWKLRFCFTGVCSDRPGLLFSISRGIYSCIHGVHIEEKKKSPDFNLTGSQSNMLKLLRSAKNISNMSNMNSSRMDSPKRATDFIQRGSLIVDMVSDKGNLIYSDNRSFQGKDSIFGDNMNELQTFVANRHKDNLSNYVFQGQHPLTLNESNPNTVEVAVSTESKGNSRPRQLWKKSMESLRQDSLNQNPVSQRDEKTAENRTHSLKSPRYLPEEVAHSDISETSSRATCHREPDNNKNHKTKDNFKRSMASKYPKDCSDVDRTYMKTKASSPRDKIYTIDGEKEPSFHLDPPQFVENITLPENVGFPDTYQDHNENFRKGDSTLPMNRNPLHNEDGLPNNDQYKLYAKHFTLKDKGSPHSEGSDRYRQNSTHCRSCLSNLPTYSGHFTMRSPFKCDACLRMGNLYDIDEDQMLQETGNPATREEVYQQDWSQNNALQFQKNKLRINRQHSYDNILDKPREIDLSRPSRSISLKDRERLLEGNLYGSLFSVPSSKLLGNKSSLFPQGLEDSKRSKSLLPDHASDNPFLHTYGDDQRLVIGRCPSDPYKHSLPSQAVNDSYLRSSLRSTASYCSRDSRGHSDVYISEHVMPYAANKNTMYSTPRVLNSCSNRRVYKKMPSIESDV
T5 sequence (P42260 32-908): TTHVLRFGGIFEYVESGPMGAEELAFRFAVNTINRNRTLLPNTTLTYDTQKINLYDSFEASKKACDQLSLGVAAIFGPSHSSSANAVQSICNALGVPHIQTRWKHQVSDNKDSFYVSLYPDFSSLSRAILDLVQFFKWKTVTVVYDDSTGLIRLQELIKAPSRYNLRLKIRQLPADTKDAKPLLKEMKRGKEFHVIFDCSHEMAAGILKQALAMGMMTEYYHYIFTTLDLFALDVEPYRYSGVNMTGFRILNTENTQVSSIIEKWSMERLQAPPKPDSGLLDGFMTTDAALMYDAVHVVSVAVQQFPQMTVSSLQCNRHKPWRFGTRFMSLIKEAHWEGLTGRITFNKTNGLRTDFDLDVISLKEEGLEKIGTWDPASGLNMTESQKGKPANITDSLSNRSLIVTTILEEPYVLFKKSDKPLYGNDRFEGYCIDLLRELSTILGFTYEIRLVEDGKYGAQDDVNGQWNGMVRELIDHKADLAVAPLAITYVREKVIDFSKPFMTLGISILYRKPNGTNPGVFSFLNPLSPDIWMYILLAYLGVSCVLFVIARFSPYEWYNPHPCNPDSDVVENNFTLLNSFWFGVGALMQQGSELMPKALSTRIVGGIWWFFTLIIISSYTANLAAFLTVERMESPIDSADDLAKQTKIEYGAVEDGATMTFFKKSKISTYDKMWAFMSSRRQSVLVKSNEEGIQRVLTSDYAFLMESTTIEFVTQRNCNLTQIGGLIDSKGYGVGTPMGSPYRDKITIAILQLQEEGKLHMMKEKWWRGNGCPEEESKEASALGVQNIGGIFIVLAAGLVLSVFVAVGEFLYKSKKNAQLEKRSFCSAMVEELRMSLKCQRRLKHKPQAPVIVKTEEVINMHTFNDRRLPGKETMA
T3 sequence (P19492 23-888): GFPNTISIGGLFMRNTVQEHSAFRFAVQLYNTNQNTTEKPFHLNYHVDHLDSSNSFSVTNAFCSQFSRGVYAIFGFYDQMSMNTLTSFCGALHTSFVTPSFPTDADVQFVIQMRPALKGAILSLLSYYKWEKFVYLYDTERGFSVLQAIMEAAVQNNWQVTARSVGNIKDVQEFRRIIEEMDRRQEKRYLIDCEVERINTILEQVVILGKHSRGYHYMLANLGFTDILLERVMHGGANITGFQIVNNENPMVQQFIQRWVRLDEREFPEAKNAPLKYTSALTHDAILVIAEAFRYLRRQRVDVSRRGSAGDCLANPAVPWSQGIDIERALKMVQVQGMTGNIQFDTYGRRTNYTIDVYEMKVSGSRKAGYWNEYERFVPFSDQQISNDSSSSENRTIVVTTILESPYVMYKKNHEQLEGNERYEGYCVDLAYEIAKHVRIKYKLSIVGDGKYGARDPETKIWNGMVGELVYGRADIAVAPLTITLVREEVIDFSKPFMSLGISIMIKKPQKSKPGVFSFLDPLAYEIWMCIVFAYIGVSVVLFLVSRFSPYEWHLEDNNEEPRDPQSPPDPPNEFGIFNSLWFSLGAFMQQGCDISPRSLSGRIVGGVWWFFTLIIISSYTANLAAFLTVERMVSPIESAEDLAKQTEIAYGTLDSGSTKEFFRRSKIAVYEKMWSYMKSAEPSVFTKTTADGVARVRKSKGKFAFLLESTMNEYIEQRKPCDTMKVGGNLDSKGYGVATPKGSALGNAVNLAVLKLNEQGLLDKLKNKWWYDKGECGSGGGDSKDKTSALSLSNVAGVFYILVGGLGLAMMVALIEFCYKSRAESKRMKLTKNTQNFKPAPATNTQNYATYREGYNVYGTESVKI
T4 sequence (P19490 19-907): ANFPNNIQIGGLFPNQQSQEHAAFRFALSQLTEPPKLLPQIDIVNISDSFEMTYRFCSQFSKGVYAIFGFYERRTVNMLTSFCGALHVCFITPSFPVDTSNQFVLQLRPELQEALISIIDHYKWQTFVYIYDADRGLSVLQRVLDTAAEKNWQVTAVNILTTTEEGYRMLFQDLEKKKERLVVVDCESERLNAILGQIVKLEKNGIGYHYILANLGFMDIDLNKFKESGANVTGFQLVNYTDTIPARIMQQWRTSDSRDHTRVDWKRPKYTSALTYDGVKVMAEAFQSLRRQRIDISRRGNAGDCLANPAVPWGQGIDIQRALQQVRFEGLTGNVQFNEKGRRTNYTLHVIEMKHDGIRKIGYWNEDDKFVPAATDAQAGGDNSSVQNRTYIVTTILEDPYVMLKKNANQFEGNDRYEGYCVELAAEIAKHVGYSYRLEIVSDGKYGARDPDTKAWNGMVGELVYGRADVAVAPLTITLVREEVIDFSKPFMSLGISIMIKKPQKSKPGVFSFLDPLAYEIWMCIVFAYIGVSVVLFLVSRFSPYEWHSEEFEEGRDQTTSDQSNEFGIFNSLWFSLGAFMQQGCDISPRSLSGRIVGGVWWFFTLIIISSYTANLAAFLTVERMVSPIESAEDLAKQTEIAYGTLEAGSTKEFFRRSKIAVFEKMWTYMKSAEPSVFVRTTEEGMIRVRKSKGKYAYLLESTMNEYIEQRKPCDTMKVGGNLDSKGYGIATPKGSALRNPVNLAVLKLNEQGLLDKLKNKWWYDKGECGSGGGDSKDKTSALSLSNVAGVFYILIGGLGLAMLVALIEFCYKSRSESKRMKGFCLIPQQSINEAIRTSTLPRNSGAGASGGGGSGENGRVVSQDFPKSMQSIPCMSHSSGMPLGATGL

| Molecule | inhibition of NMDA-induced neuronal death [2] | inhibition of INMDA [4] | reduction of NMDA-induced rise in [Ca2+]i ([6]; 5 μM NMDA) | exacerbation of NMDA-induced neuronal death [2] | potentiation of INMDA [4] | also measured |
| --- | --- | --- | --- | --- | --- | --- |
| CC(=O)[C@H]1CC[C@H]2[C@@H]3CC[C@H]4C[C@@H](OS(=O)(=O)O)CC[C@]4(C)[C@H]3CC[C@]12C [3α5αS, 3α-hydroxy-5α-pregnan-20-one sulfate] | 47±12% | – | – | – | – | modulation of NMDA-induced current ([1]; sulfate): weaker inhibitor; effect on NMDA induced current [3]: 8±8% |
| CC(=O)[C@H]1CC[C@H]2[C@@H]3CC[C@@H]4C[C@H](O)CC[C@]4(C)[C@H]3CC[C@]12C [3α5β, pregnanolone] | do not exhibit significant neuroprotective activity | inactive | no significant effect | – | – | precipitation at higher concentrations [5]: higher concentrations tended to precipitate |
| CC(=O)[C@H]1CC[C@H]2[C@@H]3CC[C@@H]4C[C@H](OC(=O)CCCC(=O)O)CC[C@]4(C)[C@H]3CC[C@]12C [3α5βHG, pregnanolone hemiglutarate] | 38±6% | about equally effective in inhibiting INMDA | approximately 40% | – | – | – |
| CC(=O)[C@H]1CC[C@H]2[C@@H]3CC[C@@H]4C[C@H](OC(=O)C(=O)O)CC[C@]4(C)[C@H]3CC[C@]12C [3α5βHO, pregnanolone hemioxylate] | 35±6% | about equally effective in inhibiting INMDA | approximately 40% | – | – | – |
| CC(=O)[C@H]1CC[C@H]2[C@@H]3CC[C@H]4C[C@@H](OS(=O)(=O)O)CC[C@]4(C)[C@H]3CC[C@]12C [3β5αS, 3β-hydroxy-5α-pregnan-20-one sulfate] | – | – | – | 40±7% | – | modulation of NMDA-induced current ([1]; sulfate): weakly potentiates; effect on NMDA induced current [3]: 33±13% |
| CC(=O)[C@H]1CC[C@H]2[C@@H]3CC[C@@H]4C[C@@H](OS(=O)(=O)O)CC[C@]4(C)[C@H]3CC[C@]12C [3β5βS, epipregnanolone sulfate] | 86±3% | – | – | – | – | modulation of NMDA-induced current [1]: strong inhibitors; EC50 (NR1100 NMDA receptor): 144 µM; EC50 [3]: 79 µM |
| CC(=O)[C@H]1CC[C@H]2[C@@H]3CC=C4C[C@@H](OC=O)CC[C@]4(C)[C@H]3CC[C@]12C [PF, pregnenolone formate] | – | – | – | ineffective | little activity | potentiation of NMDA-induced Ca2+ accumulation ([6]; 5 μM NMDA, steroid 100 μM (pregnenolone 20 μM)): without effect |
| CC(=O)[C@H]1CC[C@H]2[C@@H]3CC=C4C[C@@H](OC(=O)CCCC(=O)O)CC[C@]4(C)[C@H]3CC[C@]12C [PHG, pregnenolone hemiglutarate] | – | – | – | 54±9% | more than doubling the response | potentiation of NMDA-induced Ca2+ accumulation [6]: 146±29% |
| CC(=O)[C@H]1CC[C@H]2[C@@H]3CC=C4C[C@@H](OC(=O)C(=O)O)CC[C@]4(C)[C@H]3CC[C@]12C [PHO, pregnenolone hemioxylate] | – | – | – | 48±12% | little activity; also recorded: does not enhance the NMDA-induced current | potentiation of NMDA-induced Ca2+ accumulation [6]: 62±17% |
| CC(=O)C1CCC2C3CC=C4C[C@@H](OC(=O)CCC(=O)O)CC[C@]4(C)C3CC[C@]12C (stereo partly drawn) [PHS, pregnenolone hemisuccinate] | – | – | – | – | more than doubling the response | Percentage change in kainate response (GluR3 AMPA receptor): −72 ± 3(3) %; Percentage change in NMDA response ([3]; NR1100 + NR2A, steroid 100 μM, 100 μM NMDA, −100 mV): +118 ± 16(16) %; Percentage change in kainate response (GluR1 AMPA receptor): −71 ± 1(4) %; Percentage change in kainate response (GluR6 kainate receptor): −15 ± 2(3) %; inhibition of the response to kainate (GluR6 kainate receptor): 15% |
| CC(=O)[C@H]1CC[C@H]2[C@@H]3CC=C4C[C@@H](O)CC[C@]4(C)[C@H]3CC[C@]12C [pregnenolone] | – | – | – | ineffective | 5±2% | precipitation at higher concentrations [5]: higher concentrations tended to precipitate; potentiation of NMDA-induced Ca2+ accumulation [6]: without effect |
| pregnanolone formate [3α5βF] | do not exhibit significant neuroprotective activity | significantly inhibits INMDA | no significant effect | – | – | – |
